system: not listed separately; assay: pKa measurement (Sirius GLpKa); format: physicochemical; details: ionic strength adjusted (0.10 M KCl) water; Method B: potentiometric method; read-out: pKa (measured using Method B)
Protocol: The pKa of a compound of formula (I) is measured using one of the following methodologies.
The apparatus used consists of a Sirius GLpKa instrument with DPAS (Dip Probe Absorption Spectroscopy) attachment. Key elements of the apparatus are a Sirius pH electrode, stirrer, titrant dispensing tubes, a multi-tipped dispenser, motor driven dispensing syringes, fibre optic UV probe and diode array detector. In addition, solutions in PTFE containers of ionic strength adjusted (0.10 M KCl) distilled water, nominally 0.50 M HCl, nominally 0.50 M KOH and 80% v/v methanol:water are also housed within the instrument. The titration solutions are constantly purged with oxygen free nitrogen. The reservoir for the potassium hydroxide solution is further protected from atmospheric contamination by a soda-lime guard-tube. Samples are placed in titration vessels which in turn are placed in a movable autosampler tray (maximum capacity 48 samples). The electrode, stirrer, dispensing tubing/tips and DPAS probe are housed on a movable, automated z-tower unit, which, controlled by software, positions itself in the appropriate titration vessel when titrating. The Sirius GLpKa instrument is directly connected to a dedicated PC supporting software for assay setup and subsequent data analysis. Assays are set up using the GlpKaControl software and results are analysed using the pKaLOGP and pKaUV software on the PC. The software also allows determination of multiple pKas using complex curve fitting analyses.
Method B: Potentiometric Method
Two types of potentiometric titrations may be performed in order to determine a compound's pKa/pKas; a purely aqueous titration (recommended for fairly water soluble compounds) and a cosolvent titration, where variable amounts of methanol are added to the sample in addition to ionic strength adjusted water (recommended for compounds which are not soluble in water). For the latter, a value for the compound's pKa in pure ionic strength adjusted water can be estimated by the Yasuda-Shedlovsky procedure. This involves measuring the apparent pKa of the compound at three known weight percentages of methanol:water (transposed into reciprocals of the dielectric constants of the medium, 1/εr) and then extrapolating to 0 wt % methanol (1/εr=[…]).
The GLpKa instrument unit also houses two aqueous wash containers (containing distilled water), a waste beaker (to dispense extraneous solutions into) and a container holding pH 7.00 buffer solution for the electrode to be immersed in during periods between titrations. Each time a set of titrations is carried out, these solutions are replaced. Position 1 in the autosampler contains a titration vessel containing pH 7.00 buffer solution (changed for each titration set). For each titration set to be run, position 2 houses a titration vessel into which ionic strength adjusted water is dispensed (typically 15.00 mL). This in turn is adjusted to pH 1.80 with aqueous HCl and then titrated to pH 12.20 by gradual addition of aqueous KOH. This is referred to as a blank titration and is employed by the pKaLogP software in order to calibrate the pH electrode and to standardise the HCl solution, using the so-called four-plus parameter procedure. Periodically, (typically every 3 months, or when the titration solutions run low) the titration solutions are replaced and the KOH solution standardised against potassium hydrogen phthalate using a standardisation procedure within the GLpKaControl software. Between 1-2 mg of each sample must be accurately weighed out. Samples are placed in provided glass titration vessels. The weight of compound must be entered into the GLpKaControl software. […]

Row | SMILES | pKa
1 | O=C(NC[C@@H](O)CN1CCC(Oc2ccc(Cl)c(Cl)c2)CC1)c1ccc(=O)[nH]c1C(F)(F)F [Example 1, N-{(2R)-3-[4-(3,4-Dichlorophenoxy)piperidin-1-yl]-2-hydroxypropyl}-6-oxo-2-(trifluoromethyl)-1,6-dihydropyridine-3-carboxamide] | 5.9
2 | O=C(NC[C@@H](O)CN1CCC(Oc2ccc(Cl)c(Cl)c2)CC1)c1sc(=O)[nH]c1C(F)(F)F [Example 4, N-{(2R)-3-[4-(3,4-Dichlorophenoxy)piperidin-1-yl]-2-hydroxypropyl}-2,3-dihydro-2-oxo-4-(trifluoromethyl)-5-thiazolecarboxamide] | 4.7
3 | Cc1c(Cl)ccc(OC2CCN(C[C@H](O)CNC(=O)c3cc(C#N)c(=O)[nH]c3C(F)(F)F)CC2)c1Cl [Example 11, 5-Cyano-N-{(2R)-3-[4-(2,4-dichloro-3-methylphenoxy)piperidin-1-yl]-2-hydroxypropyl}-6-oxo-2-(trifluoromethyl)-1,6-dihydropyridine-3-carboxamide] | 3
4 | N#Cc1cc(C(=O)NC[C@@H](O)CN2CCC(Oc3ccc(Cl)c(Cl)c3)CC2)c(-c2ccccc2)[nH]c1=O [Example 12, 5-Cyano-N-{(2R)-3-[4-(3,4-dichlorophenoxy)piperidin-1-yl]-2-hydroxypropyl}-6-oxo-2-phenyl-1,6-dihydropyridine-3-carboxamide] | 3
5 | O=C(NC[C@@H](O)CN1CCC(Oc2ccc(Cl)c(Cl)c2)CC1)c1nn[nH]c1SCC(F)(F)F [Example 19, N-{(2R)-3-[4-(3,4-Dichlorophenoxy)piperidin-1-yl]-2-hydroxypropyl}-5-[(2,2,2-trifluoroethyl)thio]-1H-1,2,3-triazole-4-carboxamide] | 5.2
6 | CS(=O)(=O)Nc1nc(C(F)(F)F)c(C(=O)NC[C@@H](O)CN2CCC(Oc3ccc(Cl)c(Cl)c3)CC2)s1 [Example 21, N-{(2R)-3-[4-(3,4-Dichlorophenoxy)piperidin-1-yl]-2-hydroxypropyl}-2-[(methylsulfonyl)amino]-4-(trifluoromethyl)-1,3-thiazole-5-carboxamide] | 7.5
7 | O=C(NC[C@@H](O)CN1CCC(Oc2ccc(Cl)c(Cl)c2)CC1)c1nn[nH]c1-c1ccc(F)cc1 [Example 26, N-{(2R)-3-[4-(3,4-Dichlorophenoxy)piperidin-1-yl]-2-hydroxypropyl}-5-(4-fluorophenyl)-1H-1,2,3-triazole-4-carboxamide] | 6.1
8 | O=C(NC[C@@H](O)CN1CCC(Oc2ccc(Cl)c(Cl)c2)CC1)c1sc(=O)[nH]c1CC(F)(F)F [Example 33, N-{(2R)-3-[4-(3,4-Dichlorophenoxy)piperidin-1-yl]-2-hydroxypropyl}-2-oxo-4-(2,2,2-trifluoroethyl)-2,3-dihydro-1,3-thiazole-5-carboxamide] | 6.6
9 | CSc1[nH]nnc1C(=O)NC[C@@H](O)CN1CCC(Oc2ccc(Cl)c(Cl)c2)CC1 [Example 36, N-{(2R)-3-[4-(3,4-Dichlorophenoxy)piperidin-1-yl]-2-hydroxypropyl}-5-(methylthio)-1H-1,2,3-triazole-4-carboxamide] | 5.5
10 | O=C(NC[C@@H](O)CN1CCC(Oc2ccc(Cl)c(Cl)c2)CC1)c1nn[nH]c1C(F)(F)F [Example 38, N-{(2R)-3-[4-(3,4-Dichlorophenoxy)piperidin-1-yl]-2-hydroxypropyl}-5-(trifluoromethyl)-1H-1,2,3-triazole-4-carboxamide] | 4
11 | Cc1c(OC2CCN(C[C@H](O)CNC(=O)c3sc(=O)[nH]c3C(F)(F)F)CC2)ccc(C#N)c1Cl [Example 40, N-{(2R)-3-[4-(3-Chloro-4-cyano-2-methylphenoxy)piperidin-1-yl]-2-hydroxypropyl}-2-oxo-4-(trifluoromethyl)-2,3-dihydro-1,3-thiazole-5-carboxamide] | 4.7

same assay, conditions: method not stated; read-out: measured pKa

Row | SMILES | pKa
12 | Cc1c(OC2CCN(C[C@H](O)CNC(=O)COc3cccc(C(=O)O)c3)CC2)ccc(Cl)c1Cl [Example 46, 3-[2-({(2R)-3-[4-(3,4-Dichloro-2-methylphenoxy)piperidin-1-yl]-2-hydroxypropyl}amino)-2-oxoethoxy]benzoic acid] | 2.6

target: T1, human H1 receptor (Homo sapiens, UniProt P35367); assay: Histamine H1 receptor binding, competition displacement of [3H]-pyrilamine; details: 1 nM [3H]-pyrilamine, membranes from recombinant CHO-K1 cells expressing the human H1 receptor, 1 hour at room temperature; read-out: H1 pKi (converted)
T1 construct: purchased Euroscreen SA, Brussels, Belgium ES-390-M; host or cells: recombinant CHO-K1 cells (membranes)
T1 sequence (P35367 whole entry): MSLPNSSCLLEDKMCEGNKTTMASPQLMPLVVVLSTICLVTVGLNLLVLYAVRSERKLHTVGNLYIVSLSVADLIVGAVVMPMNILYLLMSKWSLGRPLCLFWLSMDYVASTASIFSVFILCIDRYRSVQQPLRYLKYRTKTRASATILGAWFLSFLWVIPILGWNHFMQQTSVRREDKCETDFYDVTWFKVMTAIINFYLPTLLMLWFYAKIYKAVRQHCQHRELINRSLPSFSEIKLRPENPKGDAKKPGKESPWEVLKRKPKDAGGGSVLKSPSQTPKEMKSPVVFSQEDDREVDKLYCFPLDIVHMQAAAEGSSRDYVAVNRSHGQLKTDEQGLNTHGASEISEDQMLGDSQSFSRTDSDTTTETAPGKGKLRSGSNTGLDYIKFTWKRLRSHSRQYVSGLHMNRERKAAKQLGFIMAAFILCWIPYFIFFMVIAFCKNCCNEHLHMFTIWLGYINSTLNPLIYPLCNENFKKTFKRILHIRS
Protocol: Histamine H1 receptor binding activity of compounds of the invention was assessed by competition displacement of 1 nM [3H]-pyrilamine (Amersham, Bucks, Product code TRK 608, specific activity 30 Ci/mmol) to 2 μg membranes prepared from recombinant CHO-K1 cells expressing the human H1 receptor (Euroscreen SA, Brussels, Belgium, product code ES-390-M) in assay buffer (50 mM Tris pH 7.4 containing 2 mM MgCl2, 250 mM sucrose and 100 mM NaCl) for 1 hour at room temperature.
The following compounds of the invention gave inhibition of [3H]pyrilimine binding: […]

Row | SMILES | Ki [nM]
13 | CN(C[C@@H](O)CN1CCC(Oc2ccc(Cl)c(Cl)c2)CC1)C(=O)c1sc(=O)[nH]c1C(F)(F)F [Example 5, N-{(2S)-3-[4-(3,4-Dichlorophenoxy)piperidin-1-yl]-2-hydroxypropyl}-N-methyl-2-oxo-4-(trifluoromethyl)-2,3-dihydro-1,3-thiazole-5-carboxamide] | 126
14 | N#Cc1cc(C(=O)NC[C@@H](O)CN2CCC(Oc3ccc(Cl)c(Cl)c3)CC2)c(C(F)(F)F)[nH]c1=O [Example 10, 5-Cyano-N-{(2R)-3-[4-(3,4-dichlorophenoxy)piperidin-1-yl]-2-hydroxypropyl}-6-oxo-2-(trifluoromethyl)-1,6-dihydropyridine-3-carboxamide] | 126
15 | Cn1c(C(=O)NC[C@@H](O)CN2CCC(Oc3ccc(Cl)c(Cl)c3)CC2)cc(=O)[nH]c1=O [Example 14, N-{(2R)-3-[4-(3,4-Dichlorophenoxy)piperidin-1-yl]-2-hydroxypropyl}-3-methyl-2,6-dioxo-1,2,3,6-tetrahydropyrimidine-4-carboxamide] | 126
16 | O=C(O)c1ccc(C(=O)NC[C@@H](O)CN2CCC(Oc3ccc(Cl)c(Cl)c3)CC2)c2ccccc12 [Example 20, 4-[({(2R)-3-[4-(3,4-Dichlorophenoxy)piperidin-1-yl]-2-hydroxypropyl}amino)-carbonyl]-1-naphthoic acid] | 200
17 | Cc1c(OC2CCN(C[C@H](O)CNC(=O)c3sc(=O)[nH]c3C(F)(F)F)CC2)ccc(Cl)c1Cl [Example 24, N-{(2R)-3-[4-(3,4-Dichloro-2-methylphenoxy)piperidin-1-yl]-2-hydroxypropyl}-2-oxo-4-(trifluoromethyl)-2,3-dihydro-1,3-thiazole-5-carboxamide] | 20
18 | N#Cc1ccc(OC2CCN(C[C@H](O)CNC(=O)c3sc(=O)[nH]c3C(F)(F)F)CC2)cc1Cl [Example 27, N-{(2R)-3-[4-(3-Chloro-4-cyanophenoxy)piperidin-1-yl]-2-hydroxypropyl}-2-oxo-4-(trifluoromethyl)-2,3-dihydro-1,3-thiazole-5-carboxamide] | 251
19 | O=C(NC[C@H](O)CN1CCC(Oc2ccc(Cl)c(Cl)c2)CC1)c1sc(=O)[nH]c1C(F)(F)F [Example 28, N-{(2S)-3-[4-(3,4-Dichlorophenoxy)piperidin-1-yl]-2-hydroxypropyl}-2-oxo-4-(trifluoromethyl)-2,3-dihydro-1,3-thiazole-5-carboxamide] | 39.8
20 | CC(C)c1[nH]nnc1C(=O)NC[C@@H](O)CN1CCC(Oc2ccc(C#N)c(Cl)c2)CC1 [Example 31, N-{(2R)-3-[4-(3-Chloro-4-cyanophenoxy)piperidin-1-yl]-2-hydroxypropyl}-5-isopropyl-1H-1,2,3-triazole-4-carboxamide] | 158
21 | O=C(NC[C@@H](O)CN1CCC(Oc2ccc(Cl)c(Cl)c2)CC1)c1oc(=O)[nH]c1C(F)(F)F [Example 37, N-{(2R)-3-[4-(3,4-Dichlorophenoxy)piperidin-1-yl]-2-hydroxypropyl}-2-oxo-4-(trifluoromethyl)-2,3-dihydro-1,3-oxazole-5-carboxamide] | 200
22 | CN(c1[nH]nnc1C(=O)NC[C@@H](O)CN1CCC(Oc2ccc(Cl)c(Cl)c2)CC1)S(C)(=O)=O [Example 39, N-{(2R)-3-[4-(3,4-Dichlorophenoxy)piperidin-1-yl]-2-hydroxypropyl}-5-[methyl(methylsulfonyl)amino]-1H-1,2,3-triazole-4-carboxamide] | 126

— patent US7956070B2, “Piperidines as chemokine modulators (CCR)” (AstraZeneca AB, priority 2004, dated 2011)
